Test results from patent publication US20070270418A1, “Inhibitors of P38 and Methods of Using the Same” (priority 2003, published 2007).
Like-named read-outs stand apart in the source and are kept apart here.

Key:
[1] = tested on: TNFα release from THP-1 cells; assay: TNFα release from LPS-stimulated THP-1 cells; assay type: cell-based
Text: Compounds of the invention are screened for the ability to inhibit TNFα and IL-1β release from THP-1 cells stimulated with lipopolysaccharide (LPS) in vitro. The ability of compounds to inhibit TNFα and IL-1β release in this in vitro assay is correlated with the inhibition of p38 activity and TNFα and IL-1β expression in vivo, and is therefore an indicator of potential in vivo therapeutic activity (Lee J. C. et al, Ann. N.Y. Acad. Sci. 696: 149-170, 1993 and Nature, 372: 739-746, 1994).
THP-1 cells from ATCC (TIB202) are maintained at 37° C., 5% CO2 in RPMI 1640 media (MediaTech, Herndon, Va.) containing 4.5 g/L glucose, supplemented with 10% fetal bovine serum, 1% penicillin/streptomycin and 50 μM β-mercaptoethanol.
Test compounds are initially dissolved in RPMI media with 1% DMSO (v/v). Compounds are then serially diluted in RPMI media for all subsequent dilutions. The assay is performed under sterile conditions. THP-1 cells at a culture density of 6-8×10^5 cells/ml are collected and resuspended in the RPMI media at 10^6 cells/ml. 100 μl of resuspended cells are added to each well, which contain 100 μl of a test compound. Test compounds are prepared at twice the final concentration. Final DMSO concentration is no more than 0.5% (v/v). Cells are preincubated with compound for 30 minutes at 37° C., 5% CO2 prior to stimulation with lipopolysaccharide (LPS) (Sigma L-2880, 4 mg/ml stock in PBS). The final LPS concentration in each well is 10 or 30 μg/ml for TNFα and IL-1β release, respectively. Unstimulated control cell suspensions receive PBS vehicle only. Cell mixtures are incubated for 18 or 48 hours for TNFα and IL-1β release, respectively. 150 μl of supernatants are taken and transferred to a fresh plate and stored at −20° C. until further analysis.

[2] = biological target: T1, p38α (Homo sapiens, UniProt Q16539); assay: p38 MAP Kinase assay, ATF2 phosphorylation (ELISA); assay type: biochemical; details: 40 μM ATP
T1 construct: p38 MAP Kinases are recombinant human full-length proteins with an amino-terminal GST fusion; GST (N); purchased Upstate (Charlottesville, Va.); host or cells: E. coli
T1 sequence (Q16539 whole entry, the tested form may be a part): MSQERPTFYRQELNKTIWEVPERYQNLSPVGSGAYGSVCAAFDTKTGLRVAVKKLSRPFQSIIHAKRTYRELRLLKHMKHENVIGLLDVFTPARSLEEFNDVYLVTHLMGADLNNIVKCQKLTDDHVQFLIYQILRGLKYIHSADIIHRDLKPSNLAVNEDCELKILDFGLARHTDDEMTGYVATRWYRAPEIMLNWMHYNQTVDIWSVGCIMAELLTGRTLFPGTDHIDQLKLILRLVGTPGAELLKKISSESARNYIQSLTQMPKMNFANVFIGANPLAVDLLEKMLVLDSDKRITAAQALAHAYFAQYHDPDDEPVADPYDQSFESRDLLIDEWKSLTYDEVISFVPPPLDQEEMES
Outline: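 ATF2 Thr69 phosphorylation was quantified by ELISA (HRP/TMB, 450 nm) after EDTA termination. Reactions: 6 ng GST-fused full-length human p38α, 15 min compound pre-incubation at room temperature, then 30 min at 37° C with 40 μM ATP and 1.25 μM GST-ATF2 (aa 19-96), pH 7.5 HEPES buffer.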

[3] = Homo sapiens, THP-1, 18 h, LPS 10 μg/ml, 18 hours, read-out: TNFα (THP-1) IC50

| IC50 [1, 3] | IC50 [2] | IC50 ([1]; LPS 10 μg/ml, 18 hours, read-out: TNFα (THP-1) IC50) | Compound | IC50 ([1]; Homo sapiens, THP-1, 18 h, read-out: TNFα (THP-1) IC50 (nM)) |
| --- | --- | --- | --- | --- |
| 138 nM | 176 nM |  | OC[C@H](Cc1ccccc1)Nc1nccc(-c2c(-c3ccc(F)cc3)nc3sccn23)n1 [CLXXXI] |  |
| 11.7 nM | 3.11 nM |  | CCC[C@@H](CO)Nc1nccc(-c2c(-c3ccc(F)cc3)nc3occn23)n1 [CVIII] |  |
| 30.6 nM | 5.2 nM |  | CCC[C@H](CO)Nc1nccc(-c2c(-c3ccc(F)cc3)nc3occn23)n1 [CVI] |  |
| 8.67 nM | 3.09 nM |  | C[C@H](CO)Nc1nccc(-c2c(-c3ccc(F)cc3)nc3occn23)n1 [CV] |  |
| 127 nM | 7.88 nM |  | COc1ccc(CCNc2nccc(-c3c(-c4ccc(F)cc4)nc4occn34)n2)cc1 [CXIII] |  |
| 13.1 nM | 3.45 nM |  | Oc1ccc(CCNc2nccc(-c3c(-c4ccc(F)cc4)nc4occn34)n2)cc1 [CXII] |  |
| 913 nM | 183 nM |  | Fc1ccc(-c2nc3occn3c2-c2ccnc(NCc3nc4ccccc4[nH]3)n2)cc1 [CXIV] |  |
| 26.3 nM | 2.91 nM |  | CC(C)(CO)Nc1nccc(-c2c(-c3ccc(F)cc3)nc3occn23)n1 [CXVIII] |  |
| 47 nM | 20.6 nM |  | OC1(CNc2nccc(-c3c(-c4ccc(F)cc4)nc4occn34)n2)CCCCC1 [CXVII] |  |
| 376 nM | 236 nM |  | Fc1ccc(-c2nc3occn3c2-c2ccnc(NCCN3CCCCC3)n2)cc1 [CXVI] |  |
| 41.9 nM | 1.73 nM |  | Nc1ccc(CCNc2nccc(-c3c(-c4ccc(F)cc4)nc4occn34)n2)cc1 [CXV] |  |
| 99 nM | 27.2 nM |  | OC1(CNc2nccc(-c3c(-c4ccc(F)cc4)nc4occn34)n2)CCCc2ccccc21 (centres unmarked) [CXXIII] |  |
| 22.7 nM | 5.44 nM |  | NS(=O)(=O)c1ccc(CCNc2nccc(-c3c(-c4ccc(F)cc4)nc4occn34)n2)cc1 [CXXII] |  |
| 26.4 nM | 11.2 nM |  | Fc1ccc(CCNc2nccc(-c3c(-c4ccc(F)cc4)nc4occn34)n2)cc1 [CXXI] |  |
| 1390 nM | 71 nM |  | NC(=O)[C@H](Cc1ccccc1)Nc1nccc(-c2c(-c3ccc(F)cc3)nc3occn23)n1 [CXXVIII] |  |
| 249 nM | 28.5 nM |  | CC(C)(Nc1nccc(-c2c(-c3ccc(F)cc3)nc3occn23)n1)C(O)c1ccccc1 (centres unmarked) [CXXVII] |  |
| 1360 nM | 258 nM |  | Fc1ccc(-c2nc3occn3c2-c2ccnc(NCCN3CCN(Cc4ccccc4)CC3)n2)cc1 [CXXV] |  |
| 171 nM | 36.5 nM |  | OC(CNc1nccc(-c2c(-c3ccc(F)cc3)nc3occn23)n1)COc1ccccc1 (centres unmarked) [CXX] |  |
| 15 nM | 21.8 nM |  | OC1CCCCC1Nc1nccc(-c2c(-c3ccc(F)cc3)nc3occn23)n1 (centres unmarked) [CX] |  |
| 3.19 nM | 0.893 nM |  | CC(C)Nc1nccc(-c2c(-c3ccc(F)cc3)nc3occn23)n1 [C] |  |
| 236 nM | 361 nM |  | Fc1ccc(-c2nc3occn3c2-c2ccnc(NCCCN3CCOCC3)n2)cc1 [LIII] |  |
|  | 54.5 nM | 60.9 nM | OC(CNc1nccc(-c2c(-c3ccc(F)cc3)nc3occn23)n1)c1ccccc1 (centres unmarked) [LII] |  |
| 11.8 nM | 30.2 nM |  | OCC1(Nc2nccc(-c3c(-c4ccc(F)cc4)nc4occn34)n2)CCCC1 [LIV] |  |
| 94.4 nM | 8.06 nM |  | Fc1ccc(-c2nc3occn3c2-c2ccnc(NCCc3ccncc3)n2)cc1 [LI] |  |
| 1190 nM | 97.9 nM |  | O[C@H]1Cc2ccccc2[C@H]1Nc1nccc(-c2c(-c3ccc(F)cc3)nc3occn23)n1 [LVIII] |  |
| 58.5 nM | 8.96 nM |  | OC(CNc1nccc(-c2c(-c3ccc(F)cc3)nc3occn23)n1)c1ccccc1 (centres unmarked) [LVII] |  |
| 96.9 nM | 14 nM |  | Fc1ccc(-c2nc3occn3c2-c2ccnc(NCCCn3ccnc3)n2)cc1 [LVI] |  |
| 25 nM | 23.1 nM |  | OCCCCCCNc1nccc(-c2c(-c3ccc(F)cc3)nc3occn23)n1 [LV] |  |
| 87.4 nM | 38.5 nM |  | C[C@H](Nc1nccc(-c2c(-c3ccc(F)cc3)nc3occn23)n1)[C@H](O)c1ccccc1 [LXIII] |  |
| 258 nM | 453 nM |  | O=C1OCC[C@H]1Nc1nccc(-c2c(-c3ccc(F)cc3)nc3occn23)n1 [LXII] |  |

More lines, now with the values behind:

| Compound | IC50 [1, 3] | IC50 [2] | IC50 ([1]; LPS 10 μg/ml, 18 hours, read-out: TNFα (THP-1) IC50) | IC50 ([1]; Homo sapiens, THP-1, 18 h, read-out: TNFα (THP-1) IC50 (nM)) |
| --- | --- | --- | --- | --- |
| CC(C)(C)OC(=O)N1CCC(Nc2nccc(-c3c(-c4ccc(F)cc4)nc4sccn34)n2)CC1 [CCXXXIII, 4-{4-[6-(4-fluorophenyl)-imidazo[2,1-b]thiazol-5-yl]-pyrimidin-2-ylamino}-piperidine-1-carboxylic acid tert-butyl ester] | 76.9 nM | 2.24 nM |  |  |
| CC(C)[C@H](CO)Nc1nccc(-c2c(-c3ccc(F)cc3)nc3sccn23)n1 [CCXXXII] | 11.1 nM | 2.06 nM |  |  |
| Oc1ccc(CCNc2nccc(-c3c(-c4ccc(F)cc4)nc4sccn34)n2)cc1 [CCXXXIX] | 21 nM | 5.82 nM |  |  |
| CC(C)[C@@H](CO)Nc1nccc(-c2c(-c3ccc(F)cc3)nc3sccn23)n1 [CCXXXI] | 5.67 nM | 1.13 nM |  |  |
| CC(C)(C)OC(=O)N1CCC(CNc2nccc(-c3c(-c4ccc(F)cc4)nc4sccn34)n2)CC1 [CCXXXVIII] | 162 nM | 87.6 nM |  |  |
| CC(C)(C)OC(=O)N1CCCCC1CNc1nccc(-c2c(-c3ccc(F)cc3)nc3sccn23)n1 (centres unmarked) [CCXXXVII] | 113 nM | 107 nM |  |  |
| CC(C)(C)OC(=O)N1CCCC(CNc2nccc(-c3c(-c4ccc(F)cc4)nc4sccn34)n2)C1 (centres unmarked) [CCXXXVI] | 162 nM | 81.8 nM |  |  |
| CC[C@H](CO)Nc1nccc(-c2c(-c3ccc(F)cc3)nc3sccn23)n1 [CCXXXV] | 2.95 nM | 2.08 nM |  |  |
| CC(C)(CO)CNc1nccc(-c2c(-c3ccc(F)cc3)nc3sccn23)n1 [CCXX] | 2.41 nM | 1.56 nM |  |  |
| COc1cccc(-c2nc3sccn3c2-c2ccnc(N[C@H](CO)C(C)C)n2)c1 [CC] | 93.8 nM | 112 nM |  |  |
| CC(C)[C@H](CO)Nc1nccc(-c2c(-c3ccc(F)cc3)nc3occn23)n1 [CIII] | 20 nM | 7.57 nM |  |  |
| C[C@H](O)[C@H](CO)Nc1nccc(-c2c(-c3ccc(F)cc3)nc3occn23)n1 [CIV] |  | 8.62 nM |  | 6 nM |
| CCC(CO)(CO)Nc1nccc(-c2c(-c3ccc(F)cc3)nc3occn23)n1 [CIX] | 19.8 nM | 30.5 nM |  |  |
| CCOc1nccc(-c2c(-c3ccc(F)cc3)nc3sccn23)n1 [CLI] | 284 nM | 122 nM |  |  |
| COc1nccc(-c2c(-c3ccc(F)cc3)nc3sccn23)n1 [CLV] | 402 nM | 286 nM |  |  |
| CC(C)C(CO)Nc1nccc(-c2c(-c3ccc(F)cc3)nc3sccn23)n1 (centres unmarked) [CLXXII] | 48.1 nM | 4.67 nM |  |  |
| COC(=O)[C@@H](CC(C)C)Nc1nccc(-c2c(-c3ccc(F)cc3)nc3sccn23)n1 [CLXXI] | 3970 nM | 14.9 nM |  |  |
| CCC(CO)(CO)Nc1nccc(-c2c(-c3ccc(F)cc3)nc3sccn23)n1 [CLXXX] | 57.4 nM | 80.8 nM |  |  |
| Fc1ccc(-c2nc3sccn3c2-c2ccnc(OCC3CC3)n2)cc1 [CL] | 218 nM | 256 nM |  |  |
| C[C@@H](O)[C@@H](CO)Nc1nccc(-c2c(-c3ccc(F)cc3)nc3occn23)n1 [CVII] | 112 nM | 63.8 nM |  |  |
| CC(CO)Nc1nccc(-c2c(-c3ccc(F)cc3)nc3sccn23)n1 (centres unmarked) [CXCIII] | 8.38 nM | 6.19 nM |  |  |
| CCCC[C@H](CO)Nc1nccc(-c2c(-c3ccc(F)cc3)nc3occn23)n1 [CXI] | 65.9 nM | 11.2 nM |  |  |
| Fc1ccc(CNc2nccc(-c3c(-c4ccc(F)cc4)nc4sccn34)n2)cc1 [CXLIV] | 182 nM | 54.1 nM |  |  |
| Fc1ccc(-c2nc3sccn3c2-c2ccnc(OCc3ccccc3)n2)cc1 [CXLIX] | 391 nM | 152 nM |  |  |
| CC(CN(C)C)Nc1nccc(-c2c(-c3ccc(F)cc3)nc3occn23)n1 (centres unmarked) [CXXIV] | 67.7 nM | 59.6 nM |  |  |
| C[C@@H](Nc1nccc(-c2c(-c3ccc(F)cc3)nc3occn23)n1)C(N)=O [CXXVI] | 86.1 nM | 29.4 nM |  |  |
| CS(=O)(=O)c1nccc(-c2c(-c3ccccc3)nc3sccn23)n1 [CXXXII] | > 10000 nM | 373 nM |  |  |
| O[C@H]1CC[C@H](Nc2nccc(-c3c(-c4ccc(F)cc4)nc4occn34)n2)CC1 [LIX] | 55.4 nM | 1.79 nM |  |  |
